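Each compound was tested at five concentrations against cells in 96-well plates for 48 hours. TGI: total growth inhibition.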
Key:
Experiment in all cases: NCI-60 cell line screen, 48 h
786-0 renal = system: 786-0 renal
A549 NSCLC = system: A549 NSCLC
CAKI-1 renal = system: CAKI-1 renal
CCRF-CEM leukemia = system: CCRF-CEM leukemia
HCT-116 colon = system: HCT-116 colon
IGROV1 ovarian = system: IGROV1 ovarian
KM12 colon = system: KM12 colon
LOX IMVI melanoma = system: LOX IMVI melanoma
MDA-MB-435 = system: MDA-MB-435
NCI-H226 lung = system: NCI-H226 lung
NCI/ADR-RES ovarian = system: NCI/ADR-RES ovarian
OVCAR-8 ovarian = system: OVCAR-8 ovarian
PC-3 prostate = system: PC-3 prostate
SK-MEL-2 melanoma = system: SK-MEL-2 melanoma
SK-MEL-28 melanoma = system: SK-MEL-28 melanoma
SNB-19 CNS = system: SNB-19 CNS
SNB-75 CNS = system: SNB-75 CNS
SR leukemia = system: SR leukemia
TK-10 renal = system: TK-10 renal
UACC-62 melanoma = system: UACC-62 melanoma

Row | Structure (SMILES) | TGI (786-0 renal) | TGI (A549 NSCLC) | TGI (CAKI-1 renal) | TGI (CCRF-CEM leukemia) | TGI (HCT-116 colon) | TGI (IGROV1 ovarian) | TGI (KM12 colon) | TGI (LOX IMVI melanoma) | TGI (MDA-MB-435) | TGI (NCI-H226 lung) | TGI (NCI/ADR-RES ovarian) | TGI (OVCAR-8 ovarian) | TGI (PC-3 prostate) | TGI (SK-MEL-2 melanoma) | TGI (SK-MEL-28 melanoma) | TGI (SNB-19 CNS) | TGI (SNB-75 CNS) | TGI (SR leukemia) | TGI (TK-10 renal) | TGI (UACC-62 melanoma)
1 | O=C(O)c1cc(CC2Cc3cc4c(cc3C2=O)CCC4)cc2c1CCC2 (stereo not drawn) | > 100 µM | > 100 µM | > 100 µM | > 100 µM | > 100 µM | > 100 µM | > 100 µM | > 100 µM | > 100 µM | > 100 µM | > 100 µM | > 100 µM | > 100 µM | > 100 µM | > 100 µM | > 100 µM | > 100 µM | > 100 µM | > 100 µM | > 100 µM
2 | COc1ccc(OC)c(-c2nc3n(c2/C=C2/C(=O)Nc4ccccc42)CCS3)c1 | > 100 µM | > 100 µM | > 100 µM | > 100 µM | > 100 µM | > 100 µM | > 100 µM | > 100 µM | 40 µM | > 100 µM | > 100 µM | > 100 µM | > 100 µM | 79 µM | > 100 µM | > 100 µM | 83 µM | 94.4 µM | > 100 µM | > 100 µM
3 | O=C1C(N2CCN(c3ccccn3)CC2)=C(Cl)C(=O)c2ncccc21 | 3.21 µM | > 10 µM | 2.12 µM | 6.28 µM | 3.13 µM | > 10 µM | > 5.95 µM | 5.35 µM | > 5.27 µM | > 10 µM | > 10 µM | > 6.1 µM | > 10 µM | 4.67 µM | > 7.95 µM | > 10 µM | > 10 µM | > 6.21 µM | > 6.41 µM | > 6.76 µM
4 | O=C1N=C(SC(SC2=NC(=O)C3(NN2)c2ccccc2-c2ccccc23)=C(SC2=NC(=O)C3(NN2)c2ccccc2-c2ccccc23)SC2=NC(=O)C3(NN2)c2ccccc2-c2ccccc23)NNC12c1ccccc1-c1ccccc12 | > 10 µM | > 10 µM | > 10 µM | > 10 µM | > 10 µM | > 10 µM | > 10 µM | > 10 µM | > 10 µM | > 10 µM | > 10 µM | > 10 µM | > 10 µM | – | > 10 µM | > 10 µM | > 10 µM | > 10 µM | > 10 µM | > 10 µM
5 | O=C1/C(=c2\s/c(=C\c3ccccc3)c(=O)n2-c2ccccc2)SC(=S)N1c1ccccc1 | > 100 µM | > 100 µM | > 100 µM | > 100 µM | > 100 µM | 87.2 µM | > 100 µM | > 100 µM | > 100 µM | 89.4 µM | 96.8 µM | > 100 µM | > 100 µM | > 100 µM | > 100 µM | > 100 µM | > 100 µM | > 100 µM | > 100 µM | > 100 µM
6 | CN(C)CCCNC(=O)c1c(O)c2ccccc2[nH]c1=O | > 100 µM | > 100 µM | > 100 µM | > 100 µM | > 100 µM | > 100 µM | > 100 µM | > 100 µM | > 100 µM | > 100 µM | > 100 µM | > 100 µM | > 100 µM | > 100 µM | > 100 µM | – | > 100 µM | > 100 µM | > 100 µM | > 100 µM

Source: PubChem BioAssay (NCI)
